Columns and labels:
Human melanocytes [1] = test: Melanin determination in treated melanocytes; format: cell-based; conditions: for % MELANINE CONTENT: determined as in examples 4 and 5, concentration not given
Protocol: (§1) Day 1—Human melanocytes are rise by trypsinization and centrifuge at 1500 rpm (433×g) in an Allegra X-22R (Beckman Coulter) centrifuge during 5 minutes, and then are resuspended in 1 ml of a complete culture medium to count the number of cells. A volume of 10 μl of the cells solution was dyed with Trypan Blue colorant and the cells are counted with a hemocytometer. Then a cell solution is prepared at a concentration of 2.5×10^5 cells/ml in a complete medium and 100 μl of the cell suspension is seed in wells of 96 well plates. The plates are incubated at 37° C. in a 5% CO2 atmosphere.
Day 2—The seed cells are washed and treated with the different products in basal conditions and promelanogenic conditions. For that, the medium is removed of wells and 100 μl of the products in basal medium with 0.5% of FBS is added. Previously, the test products are solubilised in the same medium. Arbutin is solubilised in ethanol.
The products are tested at 3 different concentrations in the presence and absence of the melanogenic inductor (100 μM), i.e. isobutyl methyl-xantine (IBMX). The plates are incubated 37° C. and 5% CO2 during 5 days. The experiments are carried out using 4 wells per condition. The melanin accumulation inside the cells is monitored daily by optical microscopy.
Days 3 and 4—All treatments are renewed every 24 hours.
In order to determine the melanin content in cells treated as described in example 4, the medium is removed from each well and cells are washed with PBS 1N and incubated during 3 days at 37° C. facilitating the solubilisation of the melanin in NaOH.
Day 7—Once the solubilisation of melanin is complete, 50 μl de H2O2 MilliQ is added per well and the content is determined by absorbance using a Synergy II (Biotek Instruments Inc., Winooski, USA) at 390 nm. The mode and SD is calculated for each
The activity of several peptides of formula (II) (listed in table 3 below) to reduce melanine was determined as explained in example 5 after treating the cells as explained in example 4.

Human melanocytes [2] = test: Cell viability of treated melanocytes (CCK-8); format: cell-based; conditions: IBMX 100 μM alone, control = 100
Protocol: as §1
Day 2—The seed cells are washed and treated with the different products in basal conditions and promelanogenic conditions. […]
The products are tested at 3 different concentrations in the presence and absence of the melanogenic inductor (100 μM), i.e. isobutyl methyl-xantine (IBMX). […] The melanin accumulation inside the cells is monitored daily by optical microscopy. […]
Day 5—Determination of cell viability: In order to determine de number of viable cells, 10 μl of CCK-8 (WST-8) is added in each well. The plates are incubated at 37° C. during 1 hour and the absorbance is measured at 450 nm using Synergy II multimode (Biotek Instruments Inc., Winooski, Estados Unidos). The mode and SD is calculated for each concentration using Microsoft Excel application (see FIG. 2 and table 2)

facial hyperpigmentation = conditions: clinical studies; cited from earlier work
cultured cells = conditions: cited from earlier work
Human dermal fibroblasts = test: Cytotoxicity assay (MTT); format: cell-based; conditions: positive control 0.1% SDS, 48 h
Protocol: (§2) Human dermal fibroblasts and human keratinocytes were used. The isolated cells were cultured in DMEM culture medium supplemented with 10% FCS and were incubated at 37° C. for maintenance treatment. Untreated cells were used as negative control. The positive control was 0.1% SDS. The microcapsules as obtained in Example 1 were tested in the DMEM culture medium at two concentrations: 0.03% and 0.3%. These weight percentages refer to the weight of the microcapsule in relation to the total weight.
(§3) Cells were seeded at 20000 cells per well in a 96-well plate. 24 hours after seeding, cells were incubated under the conditions described above. After 48 h of incubation at 37° C., the culture medium was removed and the MTT reagent was added. Cells were incubated 2 hours at 37° C. DMSO was then added and the absorbance of the formed formazan salt was measured at A 570 nm. Lower absorbance values correspond to cells with lower metabolic activity, which correlates with an increased damage and, therefore, with an increased cytotoxic effect. Thus, the amount of living cells is proportional to the amount of formazan produced.

human keratinocytes = test: Cytotoxicity assay (MTT); format: cell-based; conditions: positive control 0.1% SDS, 48 h
Protocol: as §2, §3

cultured melanocytes = conditions: cited from earlier work

For `CC(C)Cn1c(=O)n(C)c(=O)c2[nH]cnc21` [Isobutyl methyl-xantine (IBMX), Isobutyl methyl-xantine, reference compound], the “Melanin content (%)” value (Human melanocytes [1]; IBMX 100 μM alone, control = 100) was 174 ± 12% and the Cell viability (Human melanocytes [2]) was 90%.
For `NC(=O)c1cccnc1` [Niacinamide], the “appearance of hyperpigmented spots” value (facial hyperpigmentation) is given as “reduce the appearance of hyperpigmented spots” and the melanosome transfer (cultured cells) is given as “inhibit melanosome transfer in cultured cells”.
In the case of `CCCCCCCCCCCCOS(=O)(=O)[O-].[Na+]` [SDS], the “% cell viability” value (Human dermal fibroblasts) was 30.0% and the “% cell viability” value (human keratinocytes) was 13.0%.
In the case of `C=CCCCCCCCCC(=O)N[C@@H](Cc1ccccc1)C(=O)O` [Sepiwhite, N-undecyl-10-enoyl-L-phenylalanine], the melanin production (cultured melanocytes) is given as “reduces melanin production in cultured melanocytes”.
For “Ac-Ile-Ser-(d)Leu-Leu-Asp-(d)Ala-Gln-Ser-NH2 (ISLLDAQS; HELM PEPTIDE1{[ac].I.S.[dL].L.D.[dA].Q.S.[am]}$$$$V2.0; SMILES CC[C@H](C)[C@H](NC(C)=O)C(=O)N[C@@H](CO)C(=O)N[C@H](CC(C)C)C(=O)N[C@@H](CC(C)C)C(=O)N[C@@H](CC(=O)O)C(=O)N[C@H](C)C(=O)N[C@@H](CCC(N)=O)C(=O)N[C@@H](CO)C(N)=O) [peptide of formula (II)]”, the “% MELANINE CONTENT” value (Human melanocytes [1]) was 68%.
For “Ac-Ile-Ser-Leu-Leu-Asp-(d)Ala-Gln-Ser-NH2 (ISLLDAQS; HELM PEPTIDE1{[ac].I.S.L.L.D.[dA].Q.S.[am]}$$$$V2.0; SMILES CC[C@H](C)[C@H](NC(C)=O)C(=O)N[C@@H](CO)C(=O)N[C@@H](CC(C)C)C(=O)N[C@@H](CC(C)C)C(=O)N[C@@H](CC(=O)O)C(=O)N[C@H](C)C(=O)N[C@@H](CCC(N)=O)C(=O)N[C@@H](CO)C(N)=O) [peptide of formula (II)]”, the “% MELANINE CONTENT” value (Human melanocytes [1]) was 80%.
For “Ac-Ile-Ser-Leu-Leu-Asp-Ala-Gln-Ser-NH2 (Ac-ISLLDAQS-NH2) [peptide of formula (II)]”, the “% MELANINE CONTENT” value (Human melanocytes [1]) was 87%.
In the case of “Palm-Ile-Ser-(d)Leu-Leu-Asp-(d)Ala-Gln-Ser-NH2 (ISLLDAQS; HELM PEPTIDE1{[CCCCCCCCCCCCCCCC(=O)[*:2]].I.S.[dL].L.D.[dA].Q.S.[am]}$$$$V2.0; SMILES CCCCCCCCCCCCCCCC(=O)N[C@H](C(=O)N[C@@H](CO)C(=O)N[C@H](CC(C)C)C(=O)N[C@@H](CC(C)C)C(=O)N[C@@H](CC(=O)O)C(=O)N[C@H](C)C(=O)N[C@@H](CCC(N)=O)C(=O)N[C@@H](CO)C(N)=O)[C@@H](C)CC) [peptide of formula (II)]”, the “% MELANINE CONTENT” value (Human melanocytes [1]) was 65%.
In the case of “Palm-Ile-Ser-Leu-Leu-Asp-(d)Ala-Gln-Ser-NH2 (ISLLDAQS; HELM PEPTIDE1{[CCCCCCCCCCCCCCCC(=O)[*:2]].I.S.L.L.D.[dA].Q.S.[am]}$$$$V2.0; SMILES CCCCCCCCCCCCCCCC(=O)N[C@H](C(=O)N[C@@H](CO)C(=O)N[C@@H](CC(C)C)C(=O)N[C@@H](CC(C)C)C(=O)N[C@@H](CC(=O)O)C(=O)N[C@H](C)C(=O)N[C@@H](CCC(N)=O)C(=O)N[C@@H](CO)C(N)=O)[C@@H](C)CC) [peptide of formula (II)]”, the “% MELANINE CONTENT” value (Human melanocytes [1]) was 78%.
For “Palm-Ile-Ser-Leu-Leu-Asp-Ala-Gln-Ser-NH2 (ISLLDAQS; HELM PEPTIDE1{[CCCCCCCCCCCCCCCC(=O)[*:2]].I.S.L.L.D.A.Q.S.[am]}$$$$V2.0; SMILES CCCCCCCCCCCCCCCC(=O)N[C@H](C(=O)N[C@@H](CO)C(=O)N[C@@H](CC(C)C)C(=O)N[C@@H](CC(C)C)C(=O)N[C@@H](CC(=O)O)C(=O)N[C@@H](C)C(=O)N[C@@H](CCC(N)=O)C(=O)N[C@@H](CO)C(N)=O)[C@@H](C)CC) [peptide of formula (II)]”, the “% MELANINE CONTENT” value (Human melanocytes [1]) was 85%.

From patent US20160250128A1, “TARGETED CAPSULES FOR THE DELIVERY OF SKIN WHITENING AGENTS IN THE SKIN” (INFINITEC ACTIVOS, S.L., priority 2013, published 2016)
